Test results from patent publication US8530680B2, “System and method for controlling growth of microorganisms with brominated furanones” (Syracuse University, priority 2008, dated 2013).

How the values were obtained:
Format in all cases: cell-based
[1] = test system: Trametes versicolor strain TV7B2-59; test: Fungal growth on MEA plates with furanone; design: key to growth on plate, TV7B2-59: −: No growth was observed; +: normal growth was seen; conditions: for growth on plate, TV7B2-59: 60 μg/mL, 7 days at 30° C.; for growth inhibition test, inhibitory concentration, TV7B2-59: tested at 1, 5, 30, 60 μg/mL, 7 days
Procedure: (§1) This Example examines the effect of brominated furanones on the growth of fungi associated with damage to building material. Six fungal strains were the subject of these experiments; Gloeophyllum trabeum (strains GT598 and GT599), Chaetomium globosum (wildtype strain and CG572), and Trametes versicolor (strains TV7B2-59 and TV57MAD277). The species were developed on 2% Malt-Extract Agar (MEA) plates and stored inverted at 4° C. The stocks were refreshed by streaking new plates every two months.
(§2) The brominated and non-brominated furanones were added to MAE agar plates at different concentrations. The brominated furanones were dissolved in either ethanol (“EtOH”) or methanol (“MeOH”) as stock solutions, as shown in Table 5. The non-brominated furanones were purchased from Sigma (St. Louis, Mo.). The furanone stocks were stored at 4° C.
(§3) MAE agar plates containing the same amounts of ethanol/methanol were also prepared as negative controls to eliminate any solvent effects. The plates were prepared using either 90 mm or 60 mm petri dishes and were stored inverted at 4° C. until use.
(§4) Different concentrations of furanones were studied to compare their antifungal activities. The plates were inoculated with the six fungal strains using a platinum loop and were incubated upside down at 30° C. for 7 days to monitor the growth. The initial screening was performed using a single 60 μg/mL furanone concentration.

[2] = test system: Trametes versicolor strain TV57MAD277; test: Fungal growth on MEA plates with furanone; design: key to growth on plate, TV57MAD277: −: No growth was observed; +: normal growth was seen; conditions: for growth on plate, TV57MAD277: 60 μg/mL, 7 days at 30° C.; for growth inhibition test, inhibitory concentration, TV57MAD277: tested at 1, 5, 30, 60 μg/mL, 7 days
Procedure: as §1, §2, §3, §4

[3] = test system: Gloeophyllum trabeum strain GT598; test: Fungal growth on MEA plates with furanone; design: key to growth on plate, GT598: −: No growth was observed; +: normal growth was seen; conditions: for growth on plate, GT598: 60 μg/mL, 7 days at 30° C.; for growth inhibition test, inhibitory concentration, GT598: tested at 1, 5, 30, 60 μg/mL, 7 days
Procedure: as §1, §2, §3, §4

[4] = test system: Gloeophyllum trabeum strain GT599; test: Fungal growth on MEA plates with furanone; design: key to growth on plate, GT599: −: No growth was observed; +: normal growth was seen; conditions: for growth on plate, GT599: 60 μg/mL, 7 days at 30° C.; for growth inhibition test, inhibitory concentration, GT599: tested at 1, 5, 30, 60 μg/mL, 7 days
Procedure: as §1, §2, §3, §4

[5] = test system: extracellular AI-2 activities of E. coli; test: AI-2 bioluminescence assay (V. harveyi BB170 reporter, E. coli supernatants); conditions: 60 μg/mL, E. coli culture 8 hours, supernatant on V. harveyi BB170
Procedure: To explore if brominated furanones have an interaction with quorum-sensing based on AI-2, a bioluminescence assay was conducted. Specifically, to examine whether the novel BFs have any inhibitory effects on universal QS signal AI-2, the bioluminescence of the reporter Vibrio harveyi (“V. harveyi”) strain BB170 was used as an indicator of AI-2 activities.
The E. coli strains RP437 [thr-1(Am) leuB6 his-4 metF159(Am) eda-50 rpsL1356 thi-1 ara-14 mtl-1 xyl-5 tonA31 tsx-78 lacY1 F-] and quorum-sensing mutant BW25113 ΔLuxS [ΔluxS::kan^r lacI^q rrnB3 ΔlacZ4787 hsdR514 Δ(araBAD)567 Δ (rhaBAD)568 rph-1] were routinely grown at 37° C. with shaking at 200 rpm in LB medium containing 10 g/L NaCl, 5 g/L yeast extract and 10 g/L tryptone. […]
The reporter strain V. harveyi BB170 was grown in AB medium at 30° C. for 16 hours. […] The subcultures were incubated at 30° C. and the bioluminescence was measured every hour as an indicator of AI-2 activity using a luminometer (Model 20/20m Turner BioSystems, Inc., Sunnyvale, Calif.). The colony-forming units (CFUs) of V. harveyi strain BB170 were counted after spreading the cell cultures on LM agar plates containing 10 g/L tryptone, 5 g/L yeast extract, 20 g/L NaCl and 15 g/L agar plates and incubating at 30° C. for 24 hours.
It was previously known that the V. harveyi BB170 strain produces luminescence in response to AI-2 but not in response to homoserine lactones (AHLs) as a result of a mutation in the AHL sensor gene. At low cell densities, the basal level of AI-2 will not trigger significant production of luminescence in V. harveyi BB170; however, at high cell densities, the extracellular AI-2 concentration will reach a certain threshold and induce the bioluminescence of V. harveyi. […]

| SMILES | growth on plate, TV7B2-59 [1] | growth inhibition test, inhibitory concentration, TV7B2-59 [1] | growth on plate, TV57MAD277 [2] | growth inhibition test, inhibitory concentration, TV57MAD277 [2] | growth on plate, GT598 [3] | growth inhibition test, inhibitory concentration, GT598 [3] | growth on plate, GT599 [4] | growth inhibition test, inhibitory concentration, GT599 [4] | reduction of extracellular AI-2 activity [5] |
| --- | --- | --- | --- | --- | --- | --- | --- | --- | --- |
| CCCCC1=C(Br)/C(=C/Br)OC1=O [BF1, 4-bromo-5Z-(bromomethylene)-3-butylfuran-2-one] | − | 5 µg/mL | − | 5 µg/mL | − | 30 µg/mL | − | 30 µg/mL |  |
| O=C1OC(=C(Br)Br)C=C1C(Br)Br [BF10, 3-(dibromomethyl)-5-(dibromomethylene)furan-2-one] | − | 30 µg/mL | − | 5 µg/mL | − | 30 µg/mL | − | 30 µg/mL | 31.0±5.1% |
| CC1=C(Br)/C(=C/Br)OC1=O [BF8, 4-bromo-5Z-(bromomethylene)-3-methylfuran-2-one] | − | 30 µg/mL | − | 30 µg/mL | − | 5 µg/mL | − | 5 µg/mL | 72.9±1.0% |
| CC1=CC(=C(Br)Br)OC1=O [BF9, 5-(dibromomethylene)-3-methylfuran-2-one] | − | 5 µg/mL | − | 5 µg/mL | − | 60 µg/mL | − | 60 µg/mL | 42.2±0.3% |
